# Data reported in patent US5208344A, “Naphthalenepropionic acid derivatives as anti-inflammatory/antiallergic agents” (American Home Products Corporation, priority 1991, dated 1993).
# Where a name gives a salt, the structure may show the parent alone.
# Test system: ovalbumin-induced bronchoconstriction
# Assay: inhibition of antigen (ovalbumin)-induced bronchoconstriction in anesthetized guinea pigs
# Format: in vivo
# Details: orally administered 4 hours before induction; guinea pig; 240 min
# Protocol: The compounds of the invention are tested to measure their in vivo ability to inhibit the bronchoconstriction induced in anesthetized guinea pigs by exogenously administered antigen.
# Male Hartley guinea pigs (400-700 gm) are sensitized three weeks prior to antigen (ovalbumin-OA) challenge as follows: each guinea pig is given two intramuscular injections--0.35 ml of Grade V OA, 50 mg/ml, into each hindlimb.
# Guinea pigs, fasted overnight but allowed water adlibitum, are anesthetized with 1.2 g/kg of urethane (intraperitoneal). Supplemental does of […] of urethane are administered intraperitoneally as needed. One carotid artery and one jugular vein are cannulated to allow for the monitoring of blood pressure and the administration of drugs, respectively. A duodenal cannula is inserted for intraduodenal dosing studies. The trachea of each animal is cannulated and connected to a Harvard respirator. […] Respiratory overflow pressure is measured from a side arm off the tracheal cannula which is connected via a Gould or Beckman pressure transducer to a suitable strip chart recorder. […]
# Test compounds are administered intravenously, perorally, or intraduodenally at appropriate times prior to OA challenge. […] Control experiments are used to determine the effects of solvents on the measured parameters, and test data is corrected for any significant solvent effects.
# Bronchoconstriction is assessed as increases in respiratory overflow pressure (cm H2 O). Changes in blood pressure (mm Hg) are also recorded.
# Test compound-induced changes in the respiratory overflow pressure are assessed as percent changes from control experiments. […] The net change in overflow pressure is measured 5 minutes after antigen challenge and is calculated as follows. […] The percent change value for the drug treated group versus the control group is calculated as follows: […]
compound,measurement,value
"C[C@H](C(=O)O)c1ccc2cc(OCc3ccc4ccccc4n3)ccc2c1 [Example 17, S-(α)-α-Methyl-6-(2-quinolinylmethoxy)-2-naphthaleneacetic acid, tromethanime salt]",ED50 (ovalbumin-induced bronchoconstriction),7 mg/kg
